Test results from US20090029949A1, “GPCR Ligands Identified by Computational Modeling” (priority 2006, published 2009).

Columns and labels:
[1] = biological target: T1, S1P1 mutant W6.48A (Homo sapiens, UniProt P21453, W269A); experiment: [32P]S1P competition binding, HEK-293 cells, W6.48A; details: S1P1 W6.48A
T1 construct: expressed in transfected cells
Experimental: (§1) For the competition assays, HEK-293 cells were used. Briefly, 4×10^5 cells were plated in 24-well dishes and allowed to adhere overnight. The cells were then transfected with 0.4 μg of the cDNA using Lipofectamine 2000 (Invitrogen) and the transfection proceeded for 48 h. After washing the cells twice with ice-cold binding buffer (20 mM Tris-HCl, pH 7.4 and 150 mM NaCl), 0.1 nM [^32P]S1P and competing concentrations of cold S1P (1 nM-10 μM), resuspended in binding buffer+4% BSA, were applied to the cells and incubated on ice for 30 min. After washing the cells twice with ice-cold binding buffer+0.4% BSA, the cells were lysed with 0.5% SDS and equilibrated in scintillation fluid. The samples were measured in triplicate.

[2] = biological target: T2, S1P1 mutant L5.51E (Homo sapiens, UniProt P21453, L213E); experiment: [35S]GTPγS binding, S1P1 L5.51E; format: biochemical; details: S1P-induced, S1P1 L5.51E in RH7777 cells
T2 construct: expressed in transfected cells; host or cells: RH7777 (transient, pcDNA3.1)
Experimental: (§2) RH7777 and HEK-293 cells (ATCC, Manassas, Va.) were maintained in Dulbecco's modified minimal essential medium (DMEM) containing 10% fetal bovine serum (Hyclone, Logan, Utah). Cells (2×10^6) were transfected with 2 μg of plasmid DNA with Effectene (Qiagen, Valencia, Calif.) according to the manufacturer's instructions, for 24 h. Before ligand binding and receptor activation assays, the cells were washed twice with serum-free DMEM and serum-starved for at least 6 h.
(§3) S1P1 Receptor Activation Assays Receptor functional assays were performed in transiently transfected RH7777 cells by measuring S1P-activated [^35S]GTPγS binding as previously described (28).

[3] = biological target: T3, S1P1 mutant T5.49S (Homo sapiens, UniProt P21453, T211S); experiment: [35S]GTPγS binding, S1P1 T5.49S; format: biochemical; details: S1P-induced, S1P1 T5.49S in RH7777 cells
T3 construct: expressed in transfected cells; host or cells: RH7777 (transient, pcDNA3.1)
Experimental: as §2, §3

[4] = biological target: T4, S1P1 mutant F5.43Y (Homo sapiens, UniProt P21453, F205Y); experiment: [35S]GTPγS binding, S1P1 F5.43Y; format: biochemical; details: S1P-induced, S1P1 F5.43Y in RH7777 cells
T4 construct: expressed in transfected cells; host or cells: RH7777 (transient, pcDNA3.1)
Experimental: as §2, §3

[5] = biological target: T5, S1P1 mutant L6.41G (Homo sapiens, UniProt P21453, L262G); experiment: [35S]GTPγS binding, S1P1 L6.41G; format: biochemical; details: S1P-induced, S1P1 L6.41G in RH7777 cells; mutant not detected at the cell surface
T5 construct: expressed in transfected cells; host or cells: RH7777
Experimental: as §2, §3

[6] = biological target: T6, S1P1 mutant V6.40L (Homo sapiens, UniProt P21453, V261L); experiment: [35S]GTPγS binding, S1P1 V6.40L; format: biochemical; details: S1P-induced, S1P1 V6.40L in RH7777 cells
T6 construct: expressed in transfected cells; host or cells: RH7777
Experimental: as §2, §3

[7] = biological target: T7, S1P1 mutant C5.44D (Homo sapiens, UniProt P21453, C206D); experiment: [35S]GTPγS binding, S1P1 C5.44D; format: biochemical; details: S1P-induced, S1P1 C5.44D in RH7777 cells
T7 construct: expressed in transfected cells; host or cells: RH7777 (transient, pcDNA3.1)
Experimental: as §2, §3

[8] = biological target: S1P1 mutant L3.36E (Homo sapiens, UniProt P21453, L128E); experiment: [32P]S1P competition binding, HEK-293 cells, L3.36E; design: expressed in transfected cells; details: S1P1 L3.36E
Experimental: as §1

[9] = biological target: T8, S1P1 mutant F5.48G (Homo sapiens, UniProt P21453, F210G); experiment: [35S]GTPγS binding, S1P1 F5.48G; format: biochemical; details: S1P-induced, S1P1 F5.48G in RH7777 cells
T8 construct: expressed in transfected cells
Experimental: as §2, §3

[10] = biological target: T9, S1P1 mutant V6.37L (Homo sapiens, UniProt P21453, V258L); experiment: [35S]GTPγS binding, S1P1 V6.37L; format: biochemical; details: S1P-induced, S1P1 V6.37L in RH7777 cells
T9 construct: expressed in transfected cells; host or cells: RH7777
Experimental: as §2, §3

[11] = biological target: S1P1 mutant V6.40A (Homo sapiens, UniProt P21453, V261A); experiment: [32P]S1P competition binding, HEK-293 cells, V6.40A; design: expressed in transfected cells; details: S1P1 V6.40A
Experimental: as §1

[12] = biological target: T10, S1P1 mutant F5.43G (Homo sapiens, UniProt P21453, F205G); experiment: [35S]GTPγS binding, S1P1 F5.43G; format: biochemical; details: S1P-induced, S1P1 F5.43G in RH7777 cells
T10 construct: expressed in transfected cells; host or cells: RH7777 (transient, pcDNA3.1)
Experimental: as §2, §3

[13] = biological target: T11, S1P1 mutant C5.44I (Homo sapiens, UniProt P21453, C206I); experiment: [35S]GTPγS binding, S1P1 C5.44I; format: biochemical; details: S1P-induced, S1P1 C5.44I in RH7777 cells
T11 construct: expressed in transfected cells; host or cells: RH7777 (transient, pcDNA3.1)
Experimental: as §2, §3

[14] = biological target: T12, S1P1 mutant V3.40L (Homo sapiens, UniProt P21453, V132L); experiment: [35S]GTPγS binding, S1P1 V3.40L; format: biochemical; details: S1P-induced, S1P1 V3.40L in RH7777 cells
T12 construct: expressed in transfected cells; host or cells: RH7777 (transient, pcDNA3.1)
Experimental: as §2, §3

[15] = biological target: T13, S1P1 mutant M3.32K (Homo sapiens, UniProt P21453, M124K); experiment: [35S]GTPγS binding, S1P1 M3.32K; format: biochemical; details: S1P-induced, S1P1 M3.32K in RH7777 cells
T13 construct: expressed in transfected cells; host or cells: RH7777
Experimental: as §2, §3

[16] = biological target: T14, S1P1 mutant L3.36G (Homo sapiens, UniProt P21453, L128G); experiment: [35S]GTPγS binding, S1P1 L3.36G; format: biochemical; details: S1P-induced, S1P1 L3.36G in RH7777 cells
T14 construct: expressed in transfected cells; host or cells: RH7777 (transient, pcDNA3.1)
Experimental: as §2, §3

[17] = biological target: T15, S1P1 mutant F5.48Y (Homo sapiens, UniProt P21453, F210Y); experiment: [35S]GTPγS binding, S1P1 F5.48Y; format: biochemical; details: S1P-induced, S1P1 F5.48Y in RH7777 cells
T15 construct: expressed in transfected cells; host or cells: RH7777
Experimental: as §2, §3

[18] = biological target: WT S1P1 (Homo sapiens, UniProt P21453); experiment: Ligand-induced [35S]GTPγS binding, WT S1P1; format: biochemical; design: expressed in transfected cells; host or cells: RH7777 (transient, pcDNA3.1); details: S1P-induced, WT-S1P1 in RH7777 cells
Experimental: as §2, §3

[19] = competition with cold S1P, read-out: KD + s.d.

T4 sequence (P21453 whole entry F205Y): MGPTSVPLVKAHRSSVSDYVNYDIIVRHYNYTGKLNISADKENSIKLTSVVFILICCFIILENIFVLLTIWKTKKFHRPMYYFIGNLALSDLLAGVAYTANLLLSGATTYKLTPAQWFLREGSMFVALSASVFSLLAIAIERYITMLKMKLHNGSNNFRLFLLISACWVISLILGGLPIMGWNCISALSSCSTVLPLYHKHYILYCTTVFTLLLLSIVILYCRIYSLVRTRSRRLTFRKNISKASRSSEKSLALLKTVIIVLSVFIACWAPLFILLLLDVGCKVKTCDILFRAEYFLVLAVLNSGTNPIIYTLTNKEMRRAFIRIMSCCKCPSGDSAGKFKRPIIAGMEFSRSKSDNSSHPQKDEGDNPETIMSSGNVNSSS
T8 sequence (P21453 whole entry F210G): as the sequence (P21453 whole entry F205Y) above, with Y205F, F210G counted along it
T11 sequence (P21453 whole entry C206I): as the sequence (P21453 whole entry F205Y) above, with Y205F, C206I counted along it
T6 sequence (P21453 whole entry V261L): as the sequence (P21453 whole entry F205Y) above, with Y205F, V261L counted along it
T13 sequence (P21453 whole entry M124K): as the sequence (P21453 whole entry F205Y) above, with M124K, Y205F counted along it
T10 sequence (P21453 whole entry F205G): as the sequence (P21453 whole entry F205Y) above, with Y205G counted along it
Chain of WT S1P1 (P21453 whole entry): as the sequence (P21453 whole entry F205Y) above, with Y205F counted along it
T5 sequence (P21453 whole entry L262G): as the sequence (P21453 whole entry F205Y) above, with Y205F, L262G counted along it
Chain of S1P1 mutant V6.40A (P21453 whole entry V261A): as the sequence (P21453 whole entry F205Y) above, with Y205F, V261A counted along it
T1 sequence (P21453 whole entry W269A): as the sequence (P21453 whole entry F205Y) above, with Y205F, W269A counted along it
T2 sequence (P21453 whole entry L213E): as the sequence (P21453 whole entry F205Y) above, with Y205F, L213E counted along it
T7 sequence (P21453 whole entry C206D): as the sequence (P21453 whole entry F205Y) above, with Y205F, C206D counted along it
T15 sequence (P21453 whole entry F210Y): as the sequence (P21453 whole entry F205Y) above, with Y205F, F210Y counted along it
T14 sequence (P21453 whole entry L128G): as the sequence (P21453 whole entry F205Y) above, with L128G, Y205F counted along it
T9 sequence (P21453 whole entry V258L): as the sequence (P21453 whole entry F205Y) above, with Y205F, V258L counted along it
Chain of S1P1 mutant L3.36E (P21453 whole entry L128E): as the sequence (P21453 whole entry F205Y) above, with L128E, Y205F counted along it
T3 sequence (P21453 whole entry T211S): as the sequence (P21453 whole entry F205Y) above, with Y205F, T211S counted along it
T12 sequence (P21453 whole entry V132L): as the sequence (P21453 whole entry F205Y) above, with V132L, Y205F counted along it

- Bmax [1]: 2080 fmol
- Kd [1, 19]: 38.5 nM
- % WT Emax + s.d. [2]: ∞
- EC50 + s.d. [2]: ∞
- EC50 [3]: 6.6 nM
- Emax ([3]; read-out: % WT Emax + s.d.): 168%
- EC50 [4]: 23 nM
- Emax ([4]; read-out: % WT Emax + s.d.): 90%
- % WT Emax + s.d. [5]: ∞
- EC50 + s.d. [5]: ∞
- % WT Emax + s.d. [6]: ∞
- EC50 + s.d. [6]: ∞
- EC50 [7]: 79 ± 17 nM
- Emax ([7]; read-out: % WT Emax + s.d.): 85%
- Bmax [8]: 1980 fmol
- Kd [8, 19]: 27.8 nM
- % WT Emax + s.d. [9]: ∞
- EC50 + s.d. [9]: ∞
- EC50 [10]: 37.6 nM
- Emax ([10]; read-out: % WT Emax + s.d.): 247%
- Bmax [11]: 2040 fmol
- Kd [11, 19]: 27.6 nM
- EC50 [12]: 11.8 nM
- Emax ([12]; read-out: % WT Emax + s.d.): 70%
- EC50 [13]: 20.4 ± 2.1 nM
- Emax ([13]; read-out: % WT Emax + s.d.): 37%
- EC50 [14]: 7 ± 4.5 nM
- Emax ([14]; read-out: % WT Emax + s.d.): 55%
- % WT Emax + s.d. [15]: ∞
- EC50 + s.d. [15]: ∞
- EC50 [16]: 23 ± 8 nM
- Emax ([16]; read-out: % WT Emax + s.d.): 75%
- % WT Emax + s.d. [17]: ∞
- EC50 + s.d. [17]: ∞
- % WT Emax + s.d. [18]: 100 + 9.13 % WT
- EC50 [18]: 1.4 ± 0.7 nM
Compound: CCCCCCCCCCCCC/C=C/[C@@H](O)[C@@H](N)COP(=O)(O)O [S1P, Sphingosine 1-phosphate]
